Assays:
[1] = test system: KMS11 (human myeloma cell line); assay: Cell Proliferation Assay (CellTiter-Glo, 3 days); type: cell-based; conditions: KMS-11, 72 h, KMS11-luc cells
Outline: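 KMS11 myeloma cells, 2000 per well in IMDM with 10% FBS, exposed to compound for 3 days at 37° C. Viability read by CellTiter-Glo luminescence; EC50 derived.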

[2] = biological target: Pim 1 (Homo sapiens, UniProt P11309); assay: Pim 1 AlphaScreen assay (high ATP)
[3] = biological target: Pim 2 (Homo sapiens, UniProt Q9P1W9); assay: Pim 2 AlphaScreen assay (high ATP)
Pim 2, sequence (Q9P1W9 whole entry): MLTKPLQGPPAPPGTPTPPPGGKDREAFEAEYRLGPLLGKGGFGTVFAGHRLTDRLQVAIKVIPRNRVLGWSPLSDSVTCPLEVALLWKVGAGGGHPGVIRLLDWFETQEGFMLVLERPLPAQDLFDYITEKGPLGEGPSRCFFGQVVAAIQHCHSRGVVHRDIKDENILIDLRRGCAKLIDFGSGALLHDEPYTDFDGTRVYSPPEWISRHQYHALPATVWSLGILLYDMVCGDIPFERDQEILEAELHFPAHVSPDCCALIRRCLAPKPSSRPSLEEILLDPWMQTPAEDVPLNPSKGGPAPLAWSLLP

[4] = biological target: Pim 3 (Homo sapiens, UniProt Q86V86); assay: Pim 3 AlphaScreen assay (high ATP)

Pim 1, sequence (P11309 whole entry): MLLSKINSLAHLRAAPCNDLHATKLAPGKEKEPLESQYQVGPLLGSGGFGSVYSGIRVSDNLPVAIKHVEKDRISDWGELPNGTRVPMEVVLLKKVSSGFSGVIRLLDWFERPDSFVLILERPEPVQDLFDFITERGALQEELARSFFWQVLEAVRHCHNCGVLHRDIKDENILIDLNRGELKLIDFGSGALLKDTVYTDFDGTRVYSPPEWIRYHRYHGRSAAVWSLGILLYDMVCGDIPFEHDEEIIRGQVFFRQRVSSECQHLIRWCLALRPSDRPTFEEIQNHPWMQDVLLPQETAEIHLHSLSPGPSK

C[C@@H]1C[C@H](N)C[C@H](c2ccncc2NC(=O)c2ccc(F)c(-c3c(F)cc(OCC(F)(F)F)cc3F)n2)C1 [Example 196, N-(4-((1R,3S,5S)-3-amino-5-methylcyclohexyl)pyridin-3-yl)-6-(2,6-difluoro-4-(2,2,2-trifluoroethoxy)phenyl)-5-fluoropicolinamide] was tested, and the EC50 [1] was 246 nM, the IC50 [2] was 0.02 nM and the IC50 [3] was 2.76 nM. It also gave an IC50 [4] of 1.37 nM.
With C[C@H]1C[C@@H](c2ccncc2NC(=O)c2ccc(F)c(-c3c(F)cc(OCCO)cc3F)n2)C[C@@H](N)[C@@H]1O [Example 32, N-(4-((1R,3R,4R,5S)-3-amino-4-hydroxy-5-methylcyclohexyl)pyridin-3-yl)-6-(2,6-difluoro-4-(2-hydroxyethoxy)phenyl)-5-fluoropicolinamide] the EC50 [1] was 52 nM, the IC50 [2] was 0.06 nM and the IC50 [3] was 4.76 nM. It also gave an IC50 [4] of 1.9 nM.
For COc1ccc(F)c(-c2nc(C(=O)Nc3cnccc3N3C[C@@H](N)[C@H](O)[C@@H](C)C3)ccc2F)c1F [Example 214, N-(4-((3R,4R,5S)-3-amino-4-hydroxy-5-methylpiperidin-1-yl)pyridin-3-yl)-6-(2,6-difluoro-3-methoxyphenyl)-5-fluoropicolinamide], the EC50 [1] was 32 nM, the IC50 [2] was 0.03 nM and the IC50 [3] was 1.07 nM. For the same compound, the IC50 [4] was 0.37 nM.
CC(C)OCc1cc(F)c(-c2nc(C(=O)Nc3cnccc3[C@@H]3C[C@H](C)C[C@H](N)C3)ccc2F)c(F)c1 [Example 147, N-(4-((1R,3S,5S)-3-amino-5-methylcyclohexyl)pyridin-3-yl)-6-(2,6-difluoro-4-(isopropoxymethyl)phenyl)-5-fluoropicolinamide] showed an EC50 [1] of 146 nM, an IC50 [2] of 0.02 nM and an IC50 [3] of 2.77 nM. The IC50 [4] was 1.03 nM.
With CCOCCOc1cc(F)c(-c2nc(C(=O)Nc3cnccc3[C@H]3C[C@@H](N)[C@H](O)[C@@H](C)C3)ccc2F)c(F)c1 [Example 141, N-(4-((1R,3R,4R,5S)-3-amino-4-hydroxy-5-methylcyclohexyl)pyridin-3-yl)-6-(4-(2-ethoxyethoxy)-2,6-difluorophenyl)-5-fluoropicolinamide] the EC50 [1] was 2510 nM, the IC50 [2] was 0.45 nM and the IC50 [3] was 37.4 nM. The IC50 [4] was 16 nM.
In the case of C[C@@H]1C[C@H](N)C[C@H](c2ccncc2NC(=O)c2ccc(F)c(-c3c(F)cc(O[C@H]4CCCOC4)cc3F)n2)C1 [Example 79, N-(4-((1R,3S,5S)-3-amino-5-methylcyclohexyl)pyridin-3-yl)-6-(2,6-difluoro-4-((S)-tetrahydro-2H-pyran-3-yloxy)phenyl)-5-fluoropicolinamide], the EC50 [1] is reported as 12 nM, the IC50 [2] is reported as 0.01 nM and the IC50 [3] is reported as 1.08 nM. The IC50 [4] was 0.24 nM.
In the case of C[C@H]1C[C@@H](c2ccncc2NC(=O)c2cccc(-c3c(F)cc(N4CCOCC4)cc3F)n2)C[C@@H](N)[C@@H]1O [Example 191, N-(4-((1R,3R,4R,5S)-3-amino-4-hydroxy-5-methylcyclohexyl)pyridin-3-yl)-6-(2,6-difluoro-4-morpholinophenyl)picolinamide], the EC50 [1] is reported as 263 nM, the IC50 [2] is reported as 0.02 nM and the IC50 [3] is reported as 2.31 nM. For the same compound, the IC50 [4] was 0.52 nM.
In the case of C[C@H]1C[C@@H](c2ccncc2NC(=O)c2nc(-c3c(F)cc(C4COC4)cc3F)c(F)cc2N)C[C@@H](N)[C@@H]1O [Example 98, 3-amino-N-(4-((1R,3R,4R,5S)-3-amino-4-hydroxy-5-methylcyclohexyl)pyridin-3-yl)-6-(2,6-difluoro-4-(oxetan-3-yl)phenyl)-5-fluoropicolinamide], the EC50 [1] is reported as 40 nM, the IC50 [2] is reported as 0.03 nM and the IC50 [3] is reported as 1.38 nM. For the same compound, the IC50 [4] was 0.53 nM.
Compound COC(C)(C)c1cc(F)c(-c2nc(C(=O)Nc3cnccc3N3C[C@@H](N)[C@H](O)[C@@H](C)C3)ccc2F)c(F)c1 [Example 130, N-(4-((3R,4R,5S)-3-amino-4-hydroxy-5-methylpiperidin-1-yl)pyridin-3-yl)-6-(2,6-difluoro-4-(2-methoxypropan-2-yl)phenyl)-5-fluoropicolinamide] has an EC50 [1] of 24 nM, an IC50 [2] of 0.02 nM and an IC50 [3] of 1.36 nM. It also gave an IC50 [4] of 0.42 nM.

Reference: US20120225062A1 (priority 2011, published 2012)
